The source of these data is ChEMBL document CHEMBL5505992, “Novel membrane-targeting isoxanthohumol-amine conjugates for combating methicillin-resistant Staphylococcus aureus (MRSA) infections” (Eur J Med Chem, 2024).

Broadly, the MIC is the smallest concentration in the dilution series that meets the test's criterion for growth inhibition. As a reminder, the HC50 is the concentration that lyses half of the red blood cells.

≈ marks a conversion by molar mass, not a printed value. Calls of active or inactive are those of the source.

For data set [1], the system named is Cell membrane. Description: Induction of cell membrane depolarization in methicillin-resistant Staphylococcus aureus clinical isolate MRSA-16 assessed as fold increase in fluorescence intensity at 32 ug/ml measured every 2 mins for 20 mins by DISC3(5) staining based analysis. In kind it is cell membranes. As to conditions: dose 32.0 µg/ml.
Data set [2] concerns Cell membrane. The experiment in a line: Induction of cytoplasmic membrane depolarization in methicillin-resistant Staphylococcus aureus clinical isolate MRSA-16 assessed as increase in fluorescence intensity at 32 ug/ml measured every 2 mins for 20 mins by SYTOX green staining based analysis. Format: cell membranes. The following applies: dose 32.0 µg/ml.
In data set [3] the test system is Cell membrane. Description: Induction of cytoplasmic membrane depolarization in methicillin-resistant Staphylococcus aureus clinical isolate MRSA-16 assessed as fold increase in fluorescence intensity at 32 ug/ml measured every 2 mins for 20 mins by SYTOX green staining based analysis. Format: cell membranes. The following applies: dose 32.0 µg/ml.
In data set [4] the test system is Staphylococcus aureus. Description: Antibacterial activity against Staphylococcus aureus ATCC 29213 measured after 16 to 18 hrs by CLSI method. Format: functional. The following applies: time 16-18 hrs.
The test system of data set [5] is Staphylococcus aureus. Description: Antibacterial activity against methicillin-resistant Staphylococcus aureus clinical isolate MRSA-11 measured after 16 to 18 hrs by CLSI method. Format: functional. As to conditions: time 16-18 hrs.
Data set [6] deals with Staphylococcus aureus. Description: Antibacterial activity against methicillin-resistant Staphylococcus aureus clinical isolate MRSA-13 measured after 16 to 18 hrs by CLSI method. In kind it is functional. The following applies: time 16-18 hrs.
Data set [7] relates to Staphylococcus aureus. The experiment in a line: Antibacterial activity against methicillin-resistant Staphylococcus aureus clinical isolate MRSA-14 measured after 16 to 18 hrs by CLSI method. In kind it is functional. As to conditions: time 16-18 hrs.
Data set [8] concerns Staphylococcus aureus. The experiment in a line: Antibacterial activity against methicillin-resistant Staphylococcus aureus clinical isolate MRSA-16 measured after 16 to 18 hrs by CLSI method. As to conditions: time 16-18 hrs. Format: functional.
Data set [9] has as its system Staphylococcus aureus. The experiment in a line: Antibacterial activity against methicillin-resistant Staphylococcus aureus clinical isolate MRSA-17 measured after 16 to 18 hrs by CLSI method. Format: functional. As to conditions: time 16-18 hrs.
Data set [10] concerns Staphylococcus aureus. Description: Antibacterial activity against methicillin-resistant Staphylococcus aureus clinical isolate MRSA-18 measured after 16 to 18 hrs by CLSI method. In kind it is functional. As to conditions: time 16-18 hrs.
In data set [11] the test system is Staphylococcus aureus. The experiment in a line: Antibacterial activity against methicillin-resistant Staphylococcus aureus clinical isolate MRSA-20 measured after 16 to 18 hrs by CLSI method. Format: functional. As to conditions: time 16-18 hrs.
In data set [12] the test system is Staphylococcus aureus. The experiment in a line: Antibacterial activity against methicillin-resistant Staphylococcus aureus clinical isolate MRSA-21 measured after 16 to 18 hrs by CLSI method. In kind it is functional. The following applies: time 16-18 hrs.
The subject of data set [13] is Staphylococcus aureus. Description: Antibacterial activity against methicillin-resistant Staphylococcus aureus clinical isolate MRSA-22 measured after 16 to 18 hrs by CLSI method. In kind it is functional. The following applies: time 16-18 hrs.
Data set [14] concerns Staphylococcus aureus. The experiment in a line: Antibacterial activity against methicillin-resistant Staphylococcus aureus clinical isolate MRSA-23 measured after 16 to 18 hrs by CLSI method. Format: functional. As to conditions: time 16-18 hrs.
A further data set relates to Escherichia coli. The experiment in a line: Antibacterial activity against Escherichia coli ATCC25922 measured after 16 to 18 hrs by CLSI method. The following applies: time 16-18 hrs. In kind it is functional.
Data set [15] is described as follows: Hemolytic activity in sheep erythrocytes incubated for 1 hr by absorbance based analysis. In kind it is toxicity, cell-based, Ovis aries, Erythrocyte.
A short description of data set [16]: Selectivity index, ratio of HC50 for hemolytic activity in sheep erythrocytes to MIC for antibacterial activity against Staphylococcus aureus ATCC 29213. Format: toxicity, cell-based. As to conditions: read-out: Selectivity Index.
The test system of data set [17] is Staphylococcus aureus. Description: Bactericidal activity against Staphylococcus aureus ATCC 29213 assessed as inhibition of bacterial growth at 8 times MIC measured within 0.5 to 1 hrs by time kill assay. As to conditions: time 0.5-1 hrs. In kind it is functional, organism-based.
In data set [18] the test system is Staphylococcus aureus. The experiment in a line: Bactericidal activity against methicillin-resistant Staphylococcus aureus clinical isolate MRSA-16 assessed as inhibition of bacterial growth at 8 times MIC measured within 0.5 to 1 hrs by time kill assay. Format: functional, organism-based. As to conditions: time 0.5-1 hrs.
In data set [19] the test system is Staphylococcus aureus. The experiment in a line: Antibacterial activity against methicillin-resistant Staphylococcus aureus infected in Kunming mouse skin infection model assessed as effect on skin abscesses in dorsal surface at 4 mg/kg,sc measured after 24 hrs. In kind it is functional, organism-based.
Data set [20] relates to Staphylococcus aureus. Description: Antibacterial activity against methicillin-resistant Staphylococcus aureus infected in Kunming mouse skin infection model assessed as effect on skin abscesses at 4 mg/kg,sc measured after 24 hrs. Format: functional, organism-based.
Data set [21] relates to Staphylococcus aureus. Description: Antibacterial activity against methicillin-resistant Staphylococcus aureus infected in Kunming mouse skin infection model assessed as reduction in inflammatory cells at 4 mg/kg,sc measured after 24 hrs. Format: functional, organism-based.
Data set [22] deals with Staphylococcus aureus. The experiment in a line: Antibacterial activity against methicillin-resistant Staphylococcus aureus infected in Kunming mouse skin infection model assessed as reduction in number of bacterial cells at 4 mg/kg,sc measured after 24 hrs. In kind it is functional, organism-based.
In data set [23] the test system is Staphylococcus aureus. Description: Antibacterial activity against methicillin-resistant Staphylococcus aureus infected in Kunming mouse skin infection model assessed as decrease in bacterial load at 4 mg/kg,sc measured after 24 hrs relative to control. Format: functional. On the set-up: scale not given: the % may be the effect or the level left.
Data set [24] deals with Staphylococcus aureus. The experiment in a line: Antibacterial activity against methicillin-resistant Staphylococcus aureus infected in Kunming mouse skin infection model assessed as decrease in bacterial load at 4 mg/kg,sc measured after 24 hrs. Format: functional.
In data set [25] the test system is Staphylococcus aureus. Description: Antibacterial activity against Staphylococcus aureus ATCC 29213 at sub-inhibitory concentration measured after 4 passages for 16 to 18 hrs. In kind it is functional, organism-based. The following applies: time 16-18 hrs.
Data set [26] concerns Staphylococcus aureus. The experiment in a line: Drug resistance, ratio of MIC for Staphylococcus aureus ATCC 29213 after 15 passages exposure to MIC for Staphylococcus aureus ATCC 29213 during first exposure. In kind it is functional.

With `CC[C@H](C)[C@H](NC(=O)CN)C(=O)NCC(=O)N[C@@H](C)C(=O)N[C@H](C(=O)N[C@@H](CC(C)C)C(=O)N[C@@H](CCCCN)C(=O)N[C@H](C(=O)N[C@@H](CC(C)C)C(=O)N[C@H](C(=O)N[C@H](C(=O)NCC(=O)N[C@@H](CC(C)C)C(=O)N1CCC[C@H]1C(=O)N[C@@H](C)C(=O)N[C@@H](CC(C)C)C(=O)N[C@H](C(=O)N[C@@H](CO)C(=O)N[C@@H](Cc1c[nH]c2ccccc12)C(=O)N[C@H](C(=O)N[C@@H](CCCCN)C(=O)N[C@@H](CCCNC(=N)N)C(=O)N[C@@H](CCCCN)C(=O)N[C@@H](CCCNC(=N)N)C(=O)N[C@@H](CCC(N)=O)C(=O)N[C@@H](CCC(N)=O)C(N)=O)[C@@H](C)CC)[C@@H](C)CC)[C@@H](C)O)[C@@H](C)O)C(C)C)C(C)C`, the fold change (FC) with Cell membrane [1] came to 4.4; in the data set on Cell membrane [3], 7. Moreover, the outcome in the data set on Cell membrane [2] was Active.

For the compound `COc1cc(OCCCCN2CCCCC2C)c(CC=C(C)C)c2c1C(=O)CC(c1ccc(OCCCCN3CCCCC3C)cc1)O2` (centres undefined), the MIC was determined as 32 µg/mL (≈ 48.4 µM) in the data set with Staphylococcus aureus [4]; 8 µg/mL (≈ 12.1 µM) in the data set on Staphylococcus aureus [5]; 32 µg/mL (≈ 48.4 µM) against Staphylococcus aureus [6]; 16 µg/mL (≈ 24.2 µM) against Staphylococcus aureus [7]; 32 µg/mL (≈ 48.4 µM) in the data set with Staphylococcus aureus [8]; 16 µg/mL (≈ 24.2 µM) against Staphylococcus aureus [9]. Moreover, the MIC was 32 µg/mL (≈ 48.4 µM) against Staphylococcus aureus [10]; 32 µg/mL (≈ 48.4 µM) against Staphylococcus aureus [11]; 32 µg/mL (≈ 48.4 µM) against Staphylococcus aureus [12]; 16 µg/mL (≈ 24.2 µM) with Staphylococcus aureus [13]; 32 µg/mL (≈ 48.4 µM) in the data set with Staphylococcus aureus [14]; more than 128 µg/mL in the data set on Escherichia coli. The compound further came in with an HC50 at 1 h in [15] of 275 µg/mL. Further, the selectivity ratio in data set [16] was more than 8.6.

`COc1cc(OCCCCCN2CCC(C)CC2)c(CC=C(C)C)c2c1C(=O)CC(c1ccc(OCCCCCN3CCC(C)CC3)cc1)O2` (centres undefined): the MIC worked out at 8 µg/mL (≈ 11.6 µM) against Staphylococcus aureus [4]; 4 µg/mL (≈ 5.81 µM) against Staphylococcus aureus [5]; 8 µg/mL (≈ 11.6 µM) with Staphylococcus aureus [6]; 8 µg/mL (≈ 11.6 µM) against Staphylococcus aureus [7]; 4 µg/mL (≈ 5.81 µM) against Staphylococcus aureus [8]; 8 µg/mL (≈ 11.6 µM) in the data set on Staphylococcus aureus [9]. In addition, the MIC was 8 µg/mL (≈ 11.6 µM) against Staphylococcus aureus [10]; 8 µg/mL (≈ 11.6 µM) with Staphylococcus aureus [11]; 4 µg/mL (≈ 5.81 µM) in the data set on Staphylococcus aureus [12]; 8 µg/mL (≈ 11.6 µM) against Staphylococcus aureus [13]; 8 µg/mL (≈ 11.6 µM) in the data set on Staphylococcus aureus [14]; more than 128 µg/mL in the data set with Escherichia coli. Moreover, the HC50 at 1 h in [15] is more than 1280 µg/mL. Moreover, the selectivity ratio in data set [16] is more than 160.

`CN[C@H](CC(C)C)C(=O)N[C@H]1C(=O)N[C@@H](CC(N)=O)C(=O)N[C@H]2C(=O)N[C@H]3C(=O)N[C@H](C(=O)N[C@H](C(=O)O)c4cc(O)cc(O)c4-c4cc3ccc4O)[C@H](O)c3ccc(c(Cl)c3)Oc3cc2cc(c3O[C@@H]2O[C@H](CO)[C@@H](O)[C@H](O)[C@H]2O[C@H]2C[C@](C)(N)[C@H](O)[C@H](C)O2)Oc2ccc(cc2Cl)[C@H]1O` [VANCOMYCIN]: the result in the data set on Staphylococcus aureus [17], in the data set on Staphylococcus aureus [18], with Staphylococcus aureus [19], in the data set with Staphylococcus aureus [20], in the data set on Staphylococcus aureus [21] and in the data set on Staphylococcus aureus [22] was Active. Besides, the Activity in the data set on Staphylococcus aureus [23] amounted to 97.67%; with Staphylococcus aureus [24], 1.6 log10CFU/g.

In the case of `CCCCN(CCCC)CCCCOc1ccc(C2CC(=O)c3c(OC)cc(OCCCCN(CCCC)CCCC)c(CC=C(C)C)c3O2)cc1` (centres undefined), the MIC against Staphylococcus aureus [4] stood at 4 µg/mL (≈ 5.55 µM); against Staphylococcus aureus [5], 8 µg/mL (≈ 11.1 µM); in the data set with Staphylococcus aureus [6], 8 µg/mL (≈ 11.1 µM); with Staphylococcus aureus [7], 4 µg/mL (≈ 5.55 µM); in the data set on Staphylococcus aureus [8], 4 µg/mL (≈ 5.55 µM); in the data set with Staphylococcus aureus [9], 4 µg/mL (≈ 5.55 µM). Moreover, the MIC with Staphylococcus aureus [10] is 8 µg/mL (≈ 11.1 µM); in the data set with Staphylococcus aureus [11], 4 µg/mL (≈ 5.55 µM); in the data set with Staphylococcus aureus [12], 8 µg/mL (≈ 11.1 µM); in the data set with Staphylococcus aureus [13] it was 8 µg/mL (≈ 11.1 µM); with Staphylococcus aureus [14], 8 µg/mL (≈ 11.1 µM); in the data set on Escherichia coli, more than 128 µg/mL. Besides, the HC50 at 1 h in data set [15] was found to be 1200 µg/mL. In addition, in data set [16], the selectivity ratio came to 300.

For the compound `CCn1cc(C(=O)O)c(=O)c2cc(F)c(N3CCNCC3)cc21` [NORFLOXACIN], in the data set on Staphylococcus aureus [25], the result was Active. Further, the “fold change (FC)” value in the data set on Staphylococcus aureus [26] amounted to 128.

Take `COc1cc(OCCCCCN2CCSCC2)c(CC=C(C)C)c2c1C(=O)CC(c1ccc(OCCCCCN3CCSCC3)cc1)O2` (centres undefined): the MIC in the data set with Staphylococcus aureus [4] was 32 µg/mL (≈ 45.9 µM); in the data set with Staphylococcus aureus [5], more than 128 µg/mL; against Staphylococcus aureus [6] it was more than 128 µg/mL; in the data set with Staphylococcus aureus [7], more than 128 µg/mL; with Staphylococcus aureus [8], more than 128 µg/mL; against Staphylococcus aureus [9] it was more than 128 µg/mL. In addition, the MIC in the data set with Staphylococcus aureus [10], with Staphylococcus aureus [11], with Staphylococcus aureus [12], with Staphylococcus aureus [13], against Staphylococcus aureus [14] and with Escherichia coli was more than 128 µg/mL in each case. In data set [15], this compound yielded an HC50 at 1 h of more than 640 µg/mL. For the same compound, the selectivity ratio in [16] is more than 20.
